Earlier results, collected in patent US20130217673A1, “MIXED MONOAMINE REUPTAKE INHIBITOR IN A BIODEGRADABLE POLYMER CARRIER” (Warsaw Orthopedic, Inc, priority 2012, published 2013).

Test system: nociception
Details: compared with bupivacaine

Question: Which “duration of the effect in blocking nociception” value does the source give for `CN(C)CCC=C1c2ccccc2CCc2ccccc21` [amitryptyline, 3-(10,11-dihydro-5H-dibenzo[a,d]cycloheptene-5-ylidene)-N,N-dimethylpropan-1-amine] here?
Answer: the effects last longer

Question: And the “potency in blocking nociception relative to bupivacaine” value?
Answer: at least three times more potent than bupivacaine

Question: With `CN(C)CCC=C1c2ccccc2COc2ccccc21` [doxepin] as the compound, how does the “duration of the effect in blocking nociception” value read?
Answer: the effects last longer

Question: What about the “potency in blocking nociception relative to bupivacaine” value of the same compound?
Answer: at least three times more potent than bupivacaine
